# Data as given in patent US10532979B2, “Phenyldifluoromethyl-substituted prolinamide compound” (ASTELLAS PHARMA INC., priority 2017, dated 2020).
# Where a name gives a salt, the structure may show the parent alone.
# Tests used:
# [1] = test system: MHC class II expression in B cells; experiment: Inhibitory effect on in vitro MHC class II expression using mouse splenocytes (LPS-stimulated, B220 positive B cells); type: cell-based; conditions: B-cell, C57BL/6J mouse splenocytes, LPS 2 μg/mL, 48 hours, YAe antibody, read-out: Dat2: IC50 value, inhibition of MHC class II expression
# Text: Test Example 2: Evaluation of Inhibitory Effect on In Vitro MHC Class II Expression Using Mouse Splenocytes (Cell Evaluation System)
# In antigen-presenting cells, inhibition of cathepsin S suppresses expression of MHC class II molecules. As a result, suppression of antigen presentation to CD4-positive T cells causes a deterioration in the immune response to foreign antigens. In regard to an increase in MHC class II expression in B cells, the inhibitory effect of the compound of the formula (I) was examined.
# Splenocytes collected from male C57BL/6J mice (Charles River Laboratories Japan, Inc.) were seeded in a 96-well plate by 1×10^5 cells/well. With RPMI 1640 medium (containing 10% fetal bovine serum (FCS), 5×10^−5 M 2-mercaptoethanol, 50 IU/mL penicillin, and 50 μg/mL streptomycin), 10 mM DMSO solution of the test compound was diluted 5-fold dilution series with 9 steps so that a final concentration becomes […] to 10 μM, or diluted 5-fold dilution series with 12 steps so that a final concentration becomes 0.205 pM to 10 μM (final DMSO concentration is 0.1%), and added. At the same time, LPS (Sigma L4005) was added to the well so that the final concentration becomes 2 μg/mL, and the cells were cultured at 37° C. under 5% CO2 for 48 hours. After culturing, the cells were stained with biotin-labeled YAe antibody (EBIOSCIENCE 13-5741-85) at 4° C. for 20 minutes, and washed. The cells were further stained with FITC fluorochrome labeled anti-mouse B220 antibody (BD BIOSCIENCES 553088) and PE fluorochrome labeled streptavidin (BD BIOSCIENCES 554061) for 20 minutes at 4° C. Therefore, an expression level (fluorescence intensity of YAe-biotin/streptavidin-PE) of MHC class II bound to the Ea peptide in B220 positive B cells was measured by using a flow cytometry system (Guava EasyCyte Plus System, Millipore). An inhibition rate at each concentration was defined by suppressing a value at the time of non-stimulation of LPS without addition of the test compound and a value at the time of stimulation of LPS without addition of the test compound by 100% inhibition and 0% inhibition, respectively, and therefore an IC50 value was calculated by the sigmoid Emax nonlinear regression method. In the table, Ex represents Example compound No., and Dat2 represents the IC50 value (nM).
# human cathepsin S = target: T1, human cathepsin S (Homo sapiens, UniProt P25774); experiment: Measurement of in vitro human cathepsin S inhibitory activity; type: biochemical; conditions: substrate VVR-AMC 40 μM, pH 4.5, 37° C.; read-out: Dat1: IC50 value of human cathepsin S inhibitory activity
# T1 construct: purchased R&D 1183-CY-010
# Experimental: Test Example 1: Measurement of In Vitro Human Cathepsin S Inhibitory Activity
# To a 96-well plate, 5 μL of human cathepsin S enzyme (R&D 1183-CY-010) was added so as to be 20 ng/well. Next, with assay buffer (50 mM sodium acetate, 250 mM sodium chloride, and 5 mM dithiothreitol (DTT), pH=4.5), a test compound (10 mM DMSO solution) was diluted 10-fold dilution series with 5 steps so that a final concentration becomes 0.1 nM to 1 μM or diluted 3-fold dilution series with 7 steps so that a final concentration becomes 0.01 nM to 10 nM, and 10 μL thereof was added to the well (final DMSO concentration was 0.1%), followed by addition of 25 μL of synthetic substrate VVR-AMC (Peptide Institute 3211-V) so that a final concentration becomes 40 μM, and thereby an enzymatic reaction was initiated. The fluorescence intensity (excitation wavelength: 380 nm, fluorescence wavelength: 460 nm) was measured at 37° C. for 5 to 10 minutes from the start of the reaction using a spectrofluorophotometer (SPECTRAMAX GEMINI, Molecular Devices), and a reaction rate when linearity was recognized (5 minutes) was obtained for each concentration of the test compound. An inhibition rate at each concentration was defined by suppressing a reaction rate at the time of non-addition of an enzyme without adding the test compound and a reaction rate at the time of addition of an enzyme without adding the test compound by 100% inhibition and 0% inhibition, respectively, and therefore an IC50 value was calculated by a sigmoid Emax nonlinear regression method. In the table, Ex represents Example compound No., and Dat1 represents the IC50 value (nM) of human cathepsin S inhibitory activity.
# [2] = test system: MHC class II expression in B cells of peripheral blood; experiment: Ex vivo MHC class II expression inhibitory effect using mouse peripheral blood after oral administration; type: in vivo; conditions: male C57BL/6J mice, 0.3 mg/kg oral, peripheral blood after 6 hours, LPS 100 μg/mL 15 hours
# Experimental: Test Example 3: Evaluation of Ex Vivo MHC Class II Expression Inhibitory Effect Using Mouse Peripheral Blood
# The expression inhibitory effect of MHC class II molecules was evaluated in an ex vivo system.
# The test compound was orally administered to male C57BL/6J mice (Charles River Laboratories Japan, Inc.), and an inhibition effect with respect to an increase in the expression of MHC class II in B cells of peripheral blood after oral administration was examined. That is, 10 mL/kg of the test compound dissolved in a vehicle [30% propylene glycol solvent {propylene glycol:hydrogenated castor oil (HCO40): Tween 80=4:2:1}/HCl (2 equivalents to the test compound)/water] was orally administered to male C57BL/6J mice (dose: 0.3 mg/kg, 4 subjects per group), and peripheral blood was recovered after 6 hours. To 90 μL of the peripheral blood, 10 μL of PBS or 10 μL (final concentration 100 μg/mL) of LPS (Sigma L4005) was added, and the culturing was carried out at 37° C. under 5% CO2 for 15 hours. […] After washing, using the flow cytometry system (FACSCanto II, BD BIOSCIENCES), an expression level of MHC class II on a surface of B220 positive B cells was measured with an average fluorescence intensity of FITC (hereinafter referred to as MFI) as an index. […]
# [3] = test system: NZB/W F1 mice (SLE-like disease); experiment: Inhibitory effect on SLE-like disease onset in spontaneous onset model using NZB/W F1 mice; type: in vivo, mouse; conditions: NZB/W F1 female mice
# Text: Test Example 4: Evaluation of Inhibitory Effect on SLE-Like Disease Onset in Spontaneous Onset Model Using NZB/W F1 Mice
# NZB/W F1 mice (Japan SLC, Inc.) is used as a model of SLE spontaneously developing a disease condition close to humans (“JAMA”, 1966, Vol. 195, p. 145; “Advances in Immunology”, 1985, Vol. 37, p. 269-390; “Journal of Biomedicine and Biotechnology”, 2011, Vol. 2011, 271694).
# NZB/W F1 female mice were divided into groups according to urine protein values (creatinine corrected value), anti-double stranded DNA (dsDNA) antibody value (IgG) in plasma, an expression level of MHC class II in B cells of peripheral blood, and body weight at age of 19 weeks. At this time, individuals with urine protein values (creatinine corrected value) of 3 or more were excluded. From age of 20 weeks, the test compound was orally administered twice a day, and then urine collection and blood collection were performed over time. The change in urine protein value and anti-dsDNA antibody value over time were evaluated.
# In the above test, anti-dsDNA IgG antibody value in plasma generated in association with SLE-like disease was measured by ELISA method (ALPHA DIAGNOSTIC 5120). In geometric mean values of the antibody value at age of 28 weeks and age of 32 weeks of each individual, a geometric mean value of 10 vehicle-administered subjects was 216662 U/mL, whereas a geometric mean value of 10 subjects administered with 1 mg/kg b.i.d. of the compound of Example 2 was 26827 U/mL, which is a low value having a significant difference (P value=0.0009, Dunnett's multiple comparison). In addition, urine protein values (creatinine corrected value) at age of 40 weeks were measured. A geometric mean value of the 10 vehicle-administered subjects was 13.0, whereas a geometric mean value of the 10 subjects administered with 1 mg/kg b.i.d. of the compound of Example 2 was 0.7, which is a low value having a significant difference (P value=0.0005, Dunnett's multiple comparison).
# T1 sequence (P25774 115-331): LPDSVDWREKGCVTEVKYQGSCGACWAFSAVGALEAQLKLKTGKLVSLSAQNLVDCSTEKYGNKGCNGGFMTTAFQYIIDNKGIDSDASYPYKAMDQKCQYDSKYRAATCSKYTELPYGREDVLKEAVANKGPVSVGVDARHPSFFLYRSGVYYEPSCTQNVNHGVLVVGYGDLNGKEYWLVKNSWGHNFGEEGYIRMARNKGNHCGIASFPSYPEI
Structure (SMILES),melting point [°C],IC50 [1] [nM],IC50 (human cathepsin S) [nM],inhibition rate of ΔMFI (increase in expression of MHC class II on B220 positive B cells) [2] [%],effect on SLE-like disease onset ([3]; 1 mg/kg b.i.d. oral),"anti-dsDNA IgG antibody value in plasma, geometric mean value ([3]; 1 mg/kg b.i.d. oral from age of 20 weeks, age of 28 weeks and 32 weeks, 10 subjects, vehicle 216662 U/mL, P value=0.0009) [U/mL]","urine protein value (creatinine corrected value), geometric mean value ([3]; 1 mg/kg b.i.d. oral, age of 40 weeks, 10 subjects, vehicle 13.0, P value=0.0005)"
"CN1CCN(Cc2ccc(C(F)(F)[C@@H]3C[C@@H](C(=O)NC4(C#N)CC4)N(C(=O)C4(C)CC4)C3)c(C(F)(F)F)c2)CC1 (as salt: succinate) [Example 18, (4R)—N-(1-cyanocyclopropyl)-4-(difluoro{4-[(4-methylpiperazin-1-yl)methyl]-2-(trifluoromethyl)phenyl}methyl)-1-[(1-methylcyclopropyl)carbonyl]-L-prolinamide]",134.3,–,–,–,–,–,–
"CN1CCN(Cc2ccc(C(F)(F)C3C[C@@H](C(=O)NC4(C#N)CC4)N(C(=O)C4(C)CC4)C3)c(C(F)(F)F)c2)CC1 (mixture of isomers) [Example 8, N-(1-cyanocyclopropyl)-4-(difluoro{4-[(4-methylpiperazin-1-yl)methyl]-2-(trifluoromethyl)phenyl}methyl)-1-[(1-methylcyclopropyl)carbonyl]-L-prolinamide dihydrochloride]",–,0.59,0.88,41,–,–,–
"CN1CCN(Cc2ccc(C(F)(F)[C@@H]3C[C@@H](C(=O)NC4(C#N)CC4)N(C(=O)C4(C)CC4)C3)c(C(F)(F)F)c2)CC1 [Example 2, (4R)—N-(1-cyanocyclopropyl)-4-(difluoro{4-[(4-methylpiperazin-1-yl)methyl]-2-(trifluoromethyl)phenyl}methyl)-1-[(1-methylcyclopropyl)carbonyl]-L-prolinamide dihydrochloride]",–,0.65,0.81,–,has the effect of suppressing the SLE-like disease onset,26827,0.7
"CN1CCN(Cc2ccc(C(F)(F)[C@@H]3C[C@@H](C(=O)NC4(C#N)CC4)N(C(=O)C4(C(F)(F)F)CC4)C3)c(C(F)(F)F)c2)CC1 [Example 4, (4R)—N-(1-cyanocyclopropyl)-4-(difluoro{4-[(4-methylpiperazin-1-yl)methyl]-2-(trifluoromethyl)phenyl}methyl)-1-{[1-(trifluoromethyl)cyclopropyl]carbonyl}-L-prolinamide]",–,0.62,1,–,–,–,–
CCN1CCN(Cc2ccc(C(F)(F)[C@@H]3C[C@@H](C(=O)NC4(C#N)CC4)N(C(=O)C4(C(F)(F)F)CC4)C3)c(C(F)(F)F)c2)CC1 [Example 13],–,0.37,1,–,–,–,–
CCN1CCN(Cc2ccc(C(F)(F)[C@@H]3C[C@@H](C(=O)NC4(C#N)CC4)N(C(=O)C4(C)CC4)C3)c(C(F)(F)F)c2)CC1 [Example 14],–,0.6,0.43,–,–,–,–
